Legend:
[1] = test system: pERK in MKN1 cells; assay: pERK inhibition, In-Cell Western (LI-COR Odyssey), MKN1 cells; format: cell-based; details: Homo sapiens, MKN-1, Table B; MKN1 or H358 cells (table does not say which); 0.5-1 hour incubation; read-out: IC50 (nM), pERK inhibition
Experimental: This Example illustrates that exemplary compounds of the present invention prevent KRas-mediated GTP nucleotide exchange mediated by SOS1 to inhibit KRas activity thereby inhibiting the generation of the downstream effector pERK.
MKN1 cells (15,000/w) or H358 (30,000/w) were seeded in a black clear flat bottom 96-well cell culture plate (Corning, #3904) and incubated at 37° C. overnight. Assay day 1, cells were dosed with compounds of Formula (I) with a 10 μm starting concentration and serially diluted 3× for a total of 9 concentrations. The cells were incubated for approximately 0.5-1 hour with the compounds solubilized in DMSO at 37° C. Cells were immediately fixed by adding 50 μL of 4% formaldehyde to all wells in a fume hood and the plates were incubated for 20 minutes at room temperature. The formaldehyde was discarded from the plates and 150 μL of ice-cold methanol was added to permeabilize the cells for 10 minutes at −20° C. The methanol was discarded from each of the plates and any liquid remaining in the plate by tapping the plate against paper towels. Cells were then blocked with 150 μL of Odyssey blocking buffer (LI-COR Biosciences #927-50010) using 0.05% Tween for 1 hour at room temperature on a shaker. The blocking buffer was discarded and 50 μL of primary antibodies pERK (cell signaling Technology #9101L; Rabbit, 1:500) and GapDH (Millipore #MAB34; Mouse, 1:5000) diluted in Odyssey blocking buffer was added. The plates were incubated overnight at 4° C. on a shaker.
On Assay day 2, the primary antibody solution was removed. Each plate was washed 3× times with 150 μL of 1×PBST (PBS+0.1% Tween 20) and incubated with 50 μL of secondary antibodies: Anti-Rabbit (LI-COR Biosciences #926-32211) and Anti-Mouse (LI-COR Biosciences #68070) at 1:800 dilution in Odyssey blocking buffer with Tween at room temperature on a shaker for 2 hours (protected from light). The secondary antibody solution as removed and each plate was washed with PBST 3× times. Any liquid remaining was discarded and the plate was imaged using the Licor Odyssey machine according to the manufacturer's instruction, using a set focus length at 3 mm and both 800 nm and 700 nm filters. The GAPDH normalized scan values for each well were divided by the average of vehicle wells to get the % of pERK inhibition. The IC50 values were then calculated with the Graph pad Prism software.

[2] = biological target: T1, recombinant human SOS1 polypeptide (amino acids 560-1049) (Homo sapiens, UniProt Q07889); assay: HTRF displacement assay: inhibition of labeled tracer binding to SOS1; details: Table A, Morrison equation for competitive binding
T1 construct: corresponding to amino acids 560-1049, expressed in E. Coli; made in house; host or cells: E. coli
T1 sequence (Q07889 560-1049): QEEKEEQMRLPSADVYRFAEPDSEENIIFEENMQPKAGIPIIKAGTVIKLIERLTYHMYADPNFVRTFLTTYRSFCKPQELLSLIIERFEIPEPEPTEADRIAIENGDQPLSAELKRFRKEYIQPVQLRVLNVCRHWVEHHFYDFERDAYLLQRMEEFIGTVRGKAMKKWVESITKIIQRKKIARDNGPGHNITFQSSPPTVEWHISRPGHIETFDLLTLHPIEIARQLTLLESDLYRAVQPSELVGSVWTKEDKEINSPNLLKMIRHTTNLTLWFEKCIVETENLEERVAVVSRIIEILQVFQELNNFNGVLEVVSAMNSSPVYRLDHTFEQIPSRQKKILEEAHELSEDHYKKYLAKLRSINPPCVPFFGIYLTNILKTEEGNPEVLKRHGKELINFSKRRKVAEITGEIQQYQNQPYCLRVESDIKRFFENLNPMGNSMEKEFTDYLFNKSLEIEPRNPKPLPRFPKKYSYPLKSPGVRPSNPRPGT
Experimental: The ability of a compound of Formula (I) to bind to SOS1 was measured using a HTRF displacement assay. […] After a 1-hour incubation at room temperature, the HTRF signal was measured using Clairostar plate reader (BMG Labtech) according to the manufacturer's instructions. Excitation filter EX-TR was used, and emission 1 was detected at 650-610 nm and emission 2 detected at 620-610 nm. The HTRF ratio was calculated using the formula: [emission 1/emission 2]*10000.
Background signals were calculated from well with a 10 μM inhibitor, known to inhibit 100% at that concentration. The background subtracted signals were converted to % binding relative to DMSO controls. Data were analyzed using XLFIT software (IDBS) using a Morrison equation for competitive binding and Ki's were generated compound of Formula (I).

Structure (SMILES)	IC50 [1] [nM]	Ki [2] [nM]
Cc1c(C#N)cccc1[C@@H](C)Nc1nnc(C)c2cnc(N(C)[C@H]3CCN(C)C3)cc12 [Example 1-5, 2-methyl-3-((R)-1-((4-methyl-7-(methyl((S)-1-methylpyrrolidin-3-yl)amino)pyrido[3,4-d]pyridazin-1-yl)amino)ethyl)benzonitrile]	57.2	0.683
Cc1c(C#N)cccc1[C@@H](C)Nc1nnc(C)c2cnc(N(C)[C@@H]3CCN(C)C3)cc12 [Example 1-6, 2-methyl-3-((R)-1-((4-methyl-7-(methyl((R)-1-methylpyrrolidin-3-yl)amino)pyrido[3,4-d]pyridazin-1-yl)amino)ethyl)benzonitrile]	41.6	1.56
CCN1CC2(C1)CN(c1cc3c(N[C@H](C)c4cccc(C#N)c4C)nnc(C)c3cn1)C2 [Example 1-7, (R)-3-(1-((7-(6-ethyl-2,6-diazaspiro[3.3]heptan-2-yl)-4-methylpyrido[3,4-d]pyridazin-1-yl)amino)ethyl)-2-methylbenzonitrile]	39.4	0.378
Cc1c(C#N)cccc1[C@@H](C)Nc1nnc(C)c2cnc(N3CC[C@@H](N)C3)cc12 [Example 1-8, 3-((R)-1-((7-((R)-3-aminopyrrolidin-1-yl)-4-methylpyrido[3,4-d]pyridazin-1-yl)amino)ethyl)-2-methylbenzonitrile]	274	1.54
Cc1c(C#N)cccc1[C@@H](C)Nc1nnc(C)c2cnc(N3CC[C@H](N)C3)cc12 [Example 1-9, 3-((R)-1-((7-((S)-3-aminopyrrolidin-1-yl)-4-methylpyrido[3,4-d]pyridazin-1-yl)amino)ethyl)-2-methylbenzonitrile]	396	1.66
Cc1c(C#N)cccc1[C@@H](C)Nc1nnc(C)c2cnc(N3CC4(CNC4)C3)cc12 [Example 1-10, (R)-2-methyl-3-(1-((4-methyl-7-(2,6-diazaspiro[3.3]heptan-2-yl)pyrido[3,4-d]pyridazin-1-yl)amino)ethyl)benzonitrile]	3280	0.541
Cc1c(C#N)cccc1[C@@H](C)Nc1nnc(C)c2cnc(N3CCN(C)[C@@H](C)C3)cc12 [Example 1-11, 3-((R)-1-((7-((S)-3,4-dimethylpiperazin-1-yl)-4-methylpyrido[3,4-d]pyridazin-1-yl)amino)ethyl)-2-methylbenzonitrile]	72.5	1.62
Cc1c(C#N)cccc1[C@@H](C)Nc1nnc(C)c2cnc(N3CCN(C)[C@H](C)C3)cc12 [Example 1-12, 3-((R)-1-((7-((R)-3,4-dimethylpiperazin-1-yl)-4-methylpyrido[3,4-d]pyridazin-1-yl)amino)ethyl)-2-methylbenzonitrile]	56.6	1.01
CCN1CCN(c2cc3c(N[C@H](C)c4cccc(C#N)c4C)nnc(C)c3cn2)C[C@H]1C [Example 1-13, 3-((R)-1-((7-((R)-4-ethyl-3-methylpiperazin-1-yl)-4-methylpyrido[3,4-d]pyridazin-1-yl)amino)ethyl)-2-methylbenzonitrile]	47.3	0.82
CCN1CCN(c2cc3c(N[C@H](C)c4cccc(C#N)c4C)nnc(C)c3cn2)[C@@H](C)C1 [Example 1-14, 3-((R)-1-((7-((S)-4-ethyl-2-methylpiperazin-1-yl)-4-methylpyrido[3,4-d]pyridazin-1-yl)amino)ethyl)-2-methylbenzonitrile]	53.9	0.788
CCN1CCN(c2cc3c(N[C@H](C)c4cccc(C#N)c4C)nnc(C)c3cn2)[C@H](C)C1 [Example 1-15, 3-((R)-1-((7-((R)-4-ethyl-2-methylpiperazin-1-yl)-4-methylpyrido[3,4-d]pyridazin-1-yl)amino)ethyl)-2-methylbenzonitrile]	63.5	0.789
Cc1c(C#N)cccc1[C@@H](C)Nc1nnc(C)c2cnc(N3CCN(C)C[C@H]3C)cc12 [Example 1-16, 3-((R)-1-((7-((R)-2,4-dimethylpiperazin-1-yl)-4-methylpyrido[3,4-d]pyridazin-1-yl)amino)ethyl)-2-methylbenzonitrile]	34.5	0.526
Cc1c(C#N)cccc1[C@@H](C)Nc1nnc(C)c2cnc(N3CCN(C)C[C@@H]3C)cc12 [Example 1-17, 3-((R)-1-((7-((S)-2,4-dimethylpiperazin-1-yl)-4-methylpyrido[3,4-d]pyridazin-1-yl)amino)ethyl)-2-methylbenzonitrile]	42.6	0.74
CCN1CCN(c2cc3c(N[C@H](C)c4cccc(C#N)c4C)nnc(C)c3cn2)C[C@@H]1C [Example 1-18, 3-((R)-1-((7-((S)-4-ethyl-3-methylpiperazin-1-yl)-4-methylpyrido[3,4-d]pyridazin-1-yl)amino)ethyl)-2-methylbenzonitrile]	35.9	0.836
Cc1c(C#N)cccc1[C@@H](C)Nc1nnc(C)c2cnc(N3CCC34CN(C)C4)cc12 [Example 1-19, (R)-2-methyl-3-(1-((4-methyl-7-(6-methyl-1,6-diazaspiro[3.3]heptan-1-yl)pyrido[3,4-d]pyridazin-1-yl)amino)ethyl)benzonitrile]	32.2	0.601
Cc1nnc(N[C@H](C)c2cccc(C(F)(F)F)c2F)c2cc(N3CCC34CN(C)C4)ncc12 [Example 1-20, (R)-N-(1-(2-fluoro-3-(trifluoromethyl)phenyl)ethyl)-4-methyl-7-(6-methyl-1,6-diazaspiro[3.3]heptan-1-yl)pyrido[3,4-d]pyridazin-1-amine]	40.7	0.682
Cc1nnc(N[C@H](C)c2cccc(C(F)(F)F)c2F)c2cc(N3CCCC34CN(C)C4)ncc12 [Example 1-21, (R)-N-(1-(2-fluoro-3-(trifluoromethyl)phenyl)ethyl)-4-methyl-7-(2-methyl-2,5-diazaspiro[3.4]octan-5-yl)pyrido[3,4-d]pyridazin-1-amine]	25.5	0.249
Cc1c(C#N)cccc1[C@@H](C)Nc1nnc(C)c2cnc(N3CCCC34CN(C)C4)cc12 [Example 1-22, (R)-2-methyl-3-(1-((4-methyl-7-(2-methyl-2,5-diazaspiro[3.4]octan-5-yl)pyrido[3,4-d]pyridazin-1-yl)amino)ethyl)benzonitrile]	33.2	0.248
Cc1nnc(N[C@H](C)c2cccc(C(F)(F)F)c2F)c2cc(N3CC4(CN(C)C4)C3)ncc12 [Example 1-23, (R)-N-(1-(2-fluoro-3-(trifluoromethyl)phenyl)ethyl)-4-methyl-7-(6-methyl-2,6-diazaspiro[3.3]heptan-2-yl)pyrido[3,4-d]pyridazin-1-amine]	59.1	0.21
Cc1c(C#N)cccc1[C@@H](C)Nc1nnc(C)c2cnc(N3CC4(CN(C)C4)C3)cc12 [Example 1-24, (R)-2-methyl-3-(1-((4-methyl-7-(6-methyl-2,6-diazaspiro[3.3]heptan-2-yl)pyrido[3,4-d]pyridazin-1-yl)amino)ethyl)benzonitrile]	40.3	0.353
Cc1c(C#N)cccc1[C@@H](C)Nc1nnc(C)c2cnc(N3CCC4(CN(C)C4)C3)cc12 [Example 1-25, (R)-2-methyl-3-(1-((4-methyl-7-(2-methyl-2,6-diazaspiro[3.4]octan-6-yl)pyrido[3,4-d]pyridazin-1-yl)amino)ethyl)benzonitrile]	68.6	0.492
Cc1nnc(N[C@H](C)c2cccc(C(F)(F)F)c2F)c2cc(N3CCC4(CN(C)C4)C3)ncc12 [Example 1-26, (R)-N-(1-(2-fluoro-3-(trifluoromethyl)phenyl)ethyl)-4-methyl-7-(2-methyl-2,6-diazaspiro[3.4]octan-6-yl)pyrido[3,4-d]pyridazin-1-amine]	30.8	0.348

— patent US20250059182A1, “SOS1 INHIBITORS” (Mirati Therapeutics, Inc., priority 2021, published 2025)
